Measured values published in publication PMC7855981, “Rho-Kinase 1/2 Inhibition Prevents Transforming Growth Factor-β-Induced Effects on Pulmonary Remodeling and Repair” (Frontiers in Pharmacology, 2021).

How the values were obtained:
VRK2 = VRK2 (Homo sapiens, UniProt Q86Y07); experiment: KINOMEscan competition binding, single concentration […] ([…] of control); conditions: read-out: % CTRL at 100 nM
ROCK1 [1] = molecular target: T1, ROCK1 (Homo sapiens, UniProt Q13464); experiment: ADP-Glo kinase assay with […] ATP; also KINOMEscan competition at […] ([…] CTRL); format: biochemical
T1 construct: GST-tagged 1–535 human ROCK1

ROCK2 [2] = molecular target: T2, ROCK2 (Homo sapiens, UniProt O75116); experiment: as above; format: biochemical
T2 construct: GST-tagged 1–552 human ROCK2

ROCK1 [3] = molecular target: T1, ROCK1; experiment: ADP-Glo kinase assay with […] ATP; format: biochemical
ROCK2 [4] = molecular target: T2, ROCK2; experiment: ADP-Glo kinase assay with […] ATP; also KINOMEscan competition at […] ([…] vs CTRL); format: biochemical

T1 sequence (Q13464 1-535): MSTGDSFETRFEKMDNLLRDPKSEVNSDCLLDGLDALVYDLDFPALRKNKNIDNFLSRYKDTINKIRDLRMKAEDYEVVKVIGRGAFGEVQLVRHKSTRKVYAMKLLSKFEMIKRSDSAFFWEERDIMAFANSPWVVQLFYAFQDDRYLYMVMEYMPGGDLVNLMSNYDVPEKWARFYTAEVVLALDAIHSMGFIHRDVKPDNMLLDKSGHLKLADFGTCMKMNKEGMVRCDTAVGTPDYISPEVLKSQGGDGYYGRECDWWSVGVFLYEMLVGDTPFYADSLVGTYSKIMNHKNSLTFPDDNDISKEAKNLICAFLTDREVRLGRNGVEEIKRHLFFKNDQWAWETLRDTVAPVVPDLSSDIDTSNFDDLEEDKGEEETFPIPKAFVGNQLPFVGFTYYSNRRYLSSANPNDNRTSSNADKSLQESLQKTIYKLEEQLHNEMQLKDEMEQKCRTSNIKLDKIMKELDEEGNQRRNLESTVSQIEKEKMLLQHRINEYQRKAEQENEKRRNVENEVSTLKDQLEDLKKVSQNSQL
T2 sequence (O75116 1-552): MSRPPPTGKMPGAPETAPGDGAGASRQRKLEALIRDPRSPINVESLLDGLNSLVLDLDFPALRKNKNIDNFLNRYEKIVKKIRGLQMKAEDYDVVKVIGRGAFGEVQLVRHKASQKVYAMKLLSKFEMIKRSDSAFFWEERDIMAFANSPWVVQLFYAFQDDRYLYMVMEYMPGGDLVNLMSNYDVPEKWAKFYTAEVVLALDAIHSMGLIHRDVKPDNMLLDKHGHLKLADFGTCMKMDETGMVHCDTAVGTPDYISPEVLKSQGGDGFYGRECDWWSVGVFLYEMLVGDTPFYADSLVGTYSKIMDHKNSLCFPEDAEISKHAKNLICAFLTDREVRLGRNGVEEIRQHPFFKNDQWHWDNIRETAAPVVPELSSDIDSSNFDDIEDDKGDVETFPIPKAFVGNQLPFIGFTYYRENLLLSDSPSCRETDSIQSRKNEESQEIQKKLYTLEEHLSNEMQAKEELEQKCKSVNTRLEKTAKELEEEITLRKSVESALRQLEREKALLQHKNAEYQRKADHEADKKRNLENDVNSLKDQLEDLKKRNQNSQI
Sequence of VRK2 (Q86Y07 whole entry): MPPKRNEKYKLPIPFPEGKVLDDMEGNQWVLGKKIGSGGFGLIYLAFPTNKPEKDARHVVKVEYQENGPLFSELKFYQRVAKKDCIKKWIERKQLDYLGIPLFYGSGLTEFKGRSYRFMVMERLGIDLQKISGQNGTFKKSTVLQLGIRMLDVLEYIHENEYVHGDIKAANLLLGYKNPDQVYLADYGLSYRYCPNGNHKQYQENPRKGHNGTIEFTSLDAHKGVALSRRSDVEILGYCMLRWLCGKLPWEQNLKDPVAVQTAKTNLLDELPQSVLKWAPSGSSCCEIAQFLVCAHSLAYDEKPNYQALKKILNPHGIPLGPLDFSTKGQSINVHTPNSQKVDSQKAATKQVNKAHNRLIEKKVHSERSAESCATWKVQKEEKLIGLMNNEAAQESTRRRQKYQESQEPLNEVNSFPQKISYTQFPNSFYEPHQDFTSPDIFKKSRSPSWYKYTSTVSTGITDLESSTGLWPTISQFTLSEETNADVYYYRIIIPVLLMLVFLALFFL

Q: `CCCN[C@H]1CCc2nc(NC(=O)c3cccc([C@@H](C)NC(=O)c4ccc(OC)c(OC)c4)c3)sc2C1` [compound 31, 3,4-dimethoxy-N-((R)-1-(3 - (((S) - 6 - (propylamino) - 4,5,6, 7 tetrahydrobenzo [d]thiazol-2-yl)carbamoyl)phenyl)ethyl) benzamide] was tested. Which remaining binding at 0.1 µM (VRK2) did it give?
A: 9.3%

Q: What about the IC50 (ROCK1 [1]) of the same compound?
A: 2.9 ± 0.5 nM

Q: And the IC50 (ROCK2 [2])?
A: 4 ± 0.6 nM

Q: With `Cn1cc(C(=O)Nc2cccc(-c3nnc(Nc4ccc5[nH]ncc5c4Cl)s3)c2)cn1` [A11, N-(3-(5-((4-chloro-1H-indazol-5-yl)amino)-1,3,4-thiadiazol-2-yl)phenyl)-1-methyl-1H-pyrazole-4-carboxamide] as the compound, how does the IC50 (ROCK1 [3]) read?
A: 341 ± 38 nM

Q: And the IC50 (ROCK2 [4])?
A: 6.1 ± 1.4 nM
